Reference: ChEMBL document CHEMBL1128559, “Inhibition of the oncogene product p185erbB-2 in vitro and in vivo by geldanamycin and dihydrogeldanamycin derivatives” (J Med Chem, 1995)

Test system: SK-BR-3
Test: Inhibition of oncogene product p185 erbB-2 from human breast cancer cells(SK-BR-3 cells).

Row | SMILES | IC50 [nM]
1 | CO[C@H]1/C=C\C=C(/C)C(=O)NC2=C(NCCCN(C)C)C(=O)C(NCCCN(C)C)=C(C[C@@H](C)C[C@H](OC)[C@H](O)[C@@H](C)/C=C(\C)[C@@H]1OC(N)=O)C2=O | > 4100
2 | CO[C@H]1/C=C\C=C(/C)C(=O)NC2=CC(=O)C(NCCCI)=C(C[C@@H](C)C[C@H](OC)[C@H](O)[C@@H](C)/C=C(\C)[C@@H]1OC(N)=O)C2=O | 110
3 | COCCNC1=C2C[C@@H](C)C[C@H](OC)[C@H](O)[C@@H](C)/C=C(\C)[C@H](OC(N)=O)[C@@H](OC)/C=C\C=C(/C)C(=O)NC(=CC1=O)C2=O | 66
4 | CO[C@H]1/C=C\C=C(/C)C(=O)NC2=CC(=O)C(NCCCN(C)C)=C(C[C@@H](C)C[C@H](OC)[C@H](O)[C@@H](C)/C=C(\C)[C@@H]1OC(N)=O)C2=O | 140
5 | CO[C@H]1/C=C\C=C(/C)C(=O)NC2=CC(=O)C(N[C@@H](C)CO)=C(C[C@@H](C)C[C@H](OC)[C@H](O)[C@@H](C)/C=C(\C)[C@@H]1OC(N)=O)C2=O | 180
6 | CO[C@H]1/C=C\C=C(/C)C(=O)NC2=CC(=O)C(N[C@H](C)CO)=C(C[C@@H](C)C[C@H](OC)[C@H](O)[C@@H](C)/C=C(\C)[C@@H]1OC(N)=O)C2=O | 330
7 | COc1c(O)cc2c(O)c1C[C@@H](C)C[C@H](OC)[C@H](O)[C@@H](C)/C=C(\C)[C@H](OC(N)=O)[C@@H](OC)/C=C\C=C(/C)C(=O)N2 | 100
8 | CO[C@H]1/C=C\C=C(/C)C(=O)Nc2cc3nc4ccccc4nc3c(c2O)C[C@@H](C)C[C@H](OC)[C@H](O)[C@@H](C)/C=C(\C)[C@@H]1OC(N)=O | > 3200
9 | CO[C@H]1/C=C\C=C(/C)C(=O)NC2=CC3=NC(/N=C(\N)N4CCOCC4)=NC3=C(C[C@@H](C)C[C@H](OC)[C@H](O)[C@@H](C)/C=C(\C)[C@@H]1OC(N)=O)C2=O | 2030
10 | CO[C@H]1C[C@H](C)CC2=C3N=C(/N=C(\N)N4CCC4)N=C3C=C(NC(=O)/C(C)=C/CC[C@H](OC)[C@@H](OC(N)=O)/C(C)=C/[C@H](C)[C@H]1O)C2=O | 980
11 | CNC1=C2C[C@@H](C)C[C@H](OC)[C@H](O)[C@@H](C)/C=C(\C)[C@H](OC(N)=O)[C@@H](OC)/C=C\C=C(/C)C(=O)NC(=CC1=O)C2=O | 89
12 | CO[C@H]1/C=C\C=C(/C)C(=O)NC2=CC(=O)C(NCCSC)=C(C[C@@H](C)C[C@H](OC)[C@H](O)[C@@H](C)/C=C(\C)[C@@H]1OC(N)=O)C2=O | 98
13 | CO[C@H]1/C=C\C=C(/C)C(=O)NC2=CC(=O)C(NCC(N)=O)=C(C[C@@H](C)C[C@H](OC)[C@H](O)[C@@H](C)/C=C(\C)[C@@H]1OC(N)=O)C2=O | 1990
14 | CO[C@H]1/C=C\C=C(/C)C(=O)NC2=CC(=O)C(N3CC(O)C3)=C(C[C@@H](C)C[C@H](OC)[C@H](O)[C@@H](C)/C=C(\C)[C@@H]1OC(N)=O)C2=O | 50
15 | CO[C@H]1/C=C\C=C(/C)C(=O)NC2=CC(=O)C(NC3CN4CCC3CC4)=C(C[C@@H](C)C[C@H](OC)[C@H](O)[C@@H](C)/C=C(\C)[C@@H]1OC(N)=O)C2=O (stereo partly specified) | 1370
16 | CO[C@H]1/C=C\C=C(/C)C(=O)NC2=CC(=O)C(NC3CCCC3)=C(C[C@@H](C)C[C@H](OC)[C@H](O)[C@@H](C)/C=C(\C)[C@@H]1OC(N)=O)C2=O | > 3260
17 | COC1=C2C[C@@H](C)C[C@H](OC)[C@H](O)[C@@H](C)/C=C(\C)[C@H](OC(N)=O)[C@@H](OC)/C=C\C=C(/C)C(=O)NC(=C(/C=N/N3CCN(C)CC3)C1=O)C2=O | > 2900
18 | COC1=C2C[C@@H](C)C[C@H](OC)[C@H](O)[C@@H](C)/C=C(\C)[C@H](OC(N)=O)[C@@H](OC)/C=C\C=C(/C)C(=O)NC(=C(Br)C1=O)C2=O | > 3130
19 | CO[C@H]1/C=C\C=C(/C)C(=O)NC2=CC(=O)C(N=C(N(C)C)N(C)C)=C(C[C@@H](C)C[C@H](OC)[C@H](O)[C@@H](C)/C=C(\C)[C@@H]1OC(N)=O)C2=O | 170
20 | COC(CNC1=C2C[C@@H](C)C[C@H](OC)[C@H](O)[C@@H](C)/C=C(\C)[C@H](OC(N)=O)[C@@H](OC)/C=C\C=C(/C)C(=O)NC(=CC1=O)C2=O)OC | 710
21 | COC1=C2C[C@@H](C)C[C@H](OC)[C@H](O)[C@@H](C)/C=C(\C)[C@H](OC(N)=O)[C@@H](OC)/C=C\C=C(/C)C3=NC(=C(C1=O)C(NC(C)(C)C)O3)C2=O (stereo partly specified) | > 3100
22 | CO[C@H]1/C=C\C=C(/C)C(=O)NC2=CC(=O)C(NCCC(=O)O)=C(C[C@@H](C)C[C@H](OC)[C@H](O)[C@@H](C)/C=C(\C)[C@@H]1OC(N)=O)C2=O | 190
23 | CO[C@H]1/C=C\C=C(/C)C(=O)NC2=CC(=O)C(NCCCN)=C(C[C@@H](C)C[C@H](OC)[C@H](O)[C@@H](C)/C=C(\C)[C@@H]1OC(N)=O)C2=O | 80
24 | CO[C@H]1C[C@H](C)CC2=C(NCCC(=O)O)C(=O)C=C(NC(=O)/C(C)=C/CC[C@H](OC)[C@@H](OC(N)=O)/C(C)=C/[C@H](C)[C@H]1O)C2=O | > 3200
25 | CO[C@H]1/C=C\C=C(/C)C(=O)NC2=CC(=O)C(NC3CC3)=C(C[C@@H](C)C[C@H](OC)[C@H](O)[C@@H](C)/C=C(\C)[C@@H]1OC(N)=O)C2=O | 43
26 | COC1=C2C[C@@H](C)C[C@H](OC)[C@H](O)[C@@H](C)/C=C(\C)[C@H](OC(N)=O)[C@@H](OC)/C=C\C=C(/C)C(=O)NC(=C(N3C=CC=CC=C3)C1=O)C2=O | 1500
